≈ marks a conversion by molar mass, not a printed value.
System: Radical scavenging activity
Assay: Antioxidant activity assessed as DPPH radical scavenging activity
Assay type: functional

Structure (SMILES) | IC50 [µg/mL]
COC(=O)c1cc(=O)[nH]c2ccc(O)cc12 | 36.4 (≈ 166 µM)
O=C1O[C@H]([C@@H](O)CO)C(O)=C1O [ASCORBIC ACID] | 21.8 (≈ 124 µM)
COc1ccc(O)c(C(C)(C)C)c1.COc1ccc(O)cc1C(C)(C)C [BUTYLATED HYDROXYANISOLE] | 20.6
